Laboratory results reported in patent US10681909B2, “Herbicidal triazoles” (FMC Corporation, priority 2014, dated 2020).

Columns and labels:
pigweed [1] = assay: Test D postemergence; format: in vivo, Amaranthus retroflexus; details: scale 0 to 100
Summary of the method: (§1)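 Visual injury ratings compared with untreated controls, taken 14 to 21 d after treatment in a controlled growth environment. Test chemicals were formulated in a surfactant-containing non-phytotoxic solvent and applied either preemergence to seeds in silt loam soil or postemergence to plants at the 1- to 4-leaf stage.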

chickweed = assay: Test D preemergence; format: in vivo, Stellaria media; details: for Plant response rating: Chickweed: scale 0 to 100
Summary of the method: as §1

oat, wild = assay: Test D postemergence; format: in vivo, Avena fatua; details: scale 0 to 100
Summary of the method: as §1

ragweed = assay: Test C preemergence; format: in vivo, Ambrosia elatior; details: for Ragweed plant response rating (0 to 100): Preemergence, visual rating after 13 to 15 d; for Plant response rating (scale of 0 to 100 where 0 is no effect and 100 is complete control): Ragweed, preemergence
Summary of the method: (§2)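 Test chemicals in a non-phytotoxic solvent mixture with surfactant were applied to pots of plants at 2 to 18 cm (1- to 4-leaf stage) for postemergence treatment, grown in a peat-based medium with vermiculite, starter nutrients and dolomitic limestone. Preemergence treatment was to seeds freshly planted in loam soil mixed with sand.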

lambsquarters = assay: Test D postemergence; format: in vivo, Chenopodium album; details: scale 0 to 100
Summary of the method: as §1

johnsongrass = assay: Test C preemergence; format: in vivo, Sorghum halepense; details: for Plant response rating (scale of 0 to 100 where 0 is no effect and 100 is complete control): Johnsongrass, preemergence; for Johnsongrass plant response rating (0 to 100): Preemergence, visual rating after 13 to 15 d
Summary of the method: as §2

kochia = assay: Test D preemergence; format: in vivo, Kochia scoparia; details: for Plant response rating: Kochia: scale 0 to 100
Summary of the method: as §1

bluegrass = assay: Test D postemergence; format: in vivo, Poa annua; details: scale 0 to 100
Summary of the method: as §1

blackgrass = assay: Test D preemergence; format: in vivo, Alopecurus myosuroides; details: for Plant response rating: Blackgrass: scale 0 to 100
Summary of the method: as §1

ryegrass, Italian = assay: Test A preemergence; format: in vivo, Lolium multiflorum; details: 0 to 100 scale (0 no effect, 100 complete control)
Summary of the method: (§3)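 Visual 0–100 ratings (0 no effect, 100 complete control) made roughly 10 days after treatment, comparing greenhouse-grown plants to untreated controls. Formulated test chemicals, with surfactant, went either as directed soil spray at planting or onto 2–10 cm seedlings bearing one to two leaves.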

galium = assay: Test A postemergence; format: in vivo, Galium aparine; details: 0 to 100 scale (0 no effect, 100 complete control), approx. 10 d
Summary of the method: as §3

pigweed [2] = assay: Test D preemergence; format: in vivo, Amaranthus retroflexus; details: for Plant response rating: Pigweed: scale 0 to 100
Summary of the method: as §1

radish, wild = assay: Test D postemergence; format: in vivo, Raphanus raphanistrum; details: scale 0 to 100
Summary of the method: as §1

[3] = 16 g ai/ha, 0 is no effect, 100 is complete control

CCOc1nc(-c2ccc(C(F)(F)F)cc2)nn1Cc1ccnc(C(F)(F)F)c1 [Compound 35, 4-[[5-ethoxy-3-[4-(trifluoromethyl)phenyl]-1H-1,2,4-triazole-1-yl]methyl]-2-(trifluoromethyl)pyridine]
Plant response rating: Pigweed (pigweed [1]; 16 g ai/ha): 100
Plant response rating: Pigweed (pigweed [1]; 31 g ai/ha): 100
Plant response rating: Pigweed (pigweed [1]; 62 g ai/ha): 100
Plant response rating: Pigweed (pigweed [1]; 125 g ai/ha): 100
Plant response rating (0 to 100), Chickweed (chickweed; [3]): 70
Plant response rating: Chickweed (chickweed; 31 g ai/ha): 85
Plant response rating: Chickweed (chickweed; 62 g ai/ha): 100
Plant response rating: Chickweed (chickweed; 125 g ai/ha): 100
Plant response rating: Oat, Wild (oat, wild; 16 g ai/ha): 40
Plant response rating: Oat, Wild (oat, wild; 31 g ai/ha): 65
Plant response rating: Oat, Wild (oat, wild; 62 g ai/ha): 75
Plant response rating: Oat, Wild (oat, wild; 125 g ai/ha): 80
Ragweed plant response rating (0 to 100) (ragweed; 31 g ai/ha): 60
Ragweed plant response rating (0 to 100) (ragweed; 62 g ai/ha): 75
Plant response rating (scale of 0 to 100 where 0 is no effect and 100 is complete control) (ragweed; 125 g ai/ha): 85
Plant response rating (scale of 0 to 100 where 0 is no effect and 100 is complete control) (ragweed; 250 g ai/ha): 90
Plant response rating: Lambsquarters (lambsquarters; 16 g ai/ha): 85
Plant response rating: Lambsquarters (lambsquarters; 31 g ai/ha): 95
Plant response rating: Lambsquarters (lambsquarters; 62 g ai/ha): 95
Plant response rating: Lambsquarters (lambsquarters; 125 g ai/ha): 100
Plant response rating (scale of 0 to 100 where 0 is no effect and 100 is complete control) (johnsongrass; 125 g ai/ha): 95
Plant response rating (scale of 0 to 100 where 0 is no effect and 100 is complete control) (johnsongrass; 250 g ai/ha): 98
Johnsongrass plant response rating (0 to 100) (johnsongrass; 31 g ai/ha): 90
Johnsongrass plant response rating (0 to 100) (johnsongrass; 62 g ai/ha): 95
Plant response rating (0 to 100), Kochia (kochia; [3]): 90
Plant response rating: Kochia (kochia; 62 g ai/ha): 90
Plant response rating: Kochia (kochia; 125 g ai/ha): 90
Plant response rating: Bluegrass (bluegrass; 16 g ai/ha): 45
Plant response rating: Bluegrass (bluegrass; 31 g ai/ha): 70
Plant response rating: Bluegrass (bluegrass; 62 g ai/ha): 75
Plant response rating: Bluegrass (bluegrass; 125 g ai/ha): 95
Plant response rating (0 to 100), Blackgrass (blackgrass; [3]): 35
Plant response rating: Blackgrass (blackgrass; 31 g ai/ha): 40
Plant response rating: Blackgrass (blackgrass; 62 g ai/ha): 65
Plant response rating: Blackgrass (blackgrass; 125 g ai/ha): 95
Plant response rating, Ryegrass, Italian (ryegrass, Italian; 31 g ai/ha): 30
Plant response rating, Ryegrass, Italian (ryegrass, Italian; 125 g ai/ha): 60
Plant response rating, Galium (galium; 31 g ai/ha): 90
Plant response rating, Galium (galium; 125 g ai/ha): 90
Plant response rating (0 to 100), Pigweed (pigweed [2]; [3]): 100
Plant response rating: Pigweed (pigweed [2]; 62 g ai/ha): 100
Plant response rating: Pigweed (pigweed [2]; 125 g ai/ha): 100
Plant response rating: Radish, Wild (radish, wild; 16 g ai/ha): 85
Plant response rating: Radish, Wild (radish, wild; 31 g ai/ha): 100
Plant response rating: Radish, Wild (radish, wild; 62 g ai/ha): 100
Plant response rating: Radish, Wild (radish, wild; 125 g ai/ha): 100
